The record followed here is patent publication US7514438B2, “Melanin concentrating hormone receptor antagonist” (Amgen, Inc., priority 2003, dated 2009).

In one experiment the target is T1, human MCH receptor (Homo sapiens, UniProt Q99705).
T1 construct: expressed in transfected cells
Kind of experiment: hMCH FLIPR calcium mobilization assay. The note with it: 100 μM or less list; read-out: Ki in the hMCH FLIPR assay. The format is cell-based.

Experiment [1] deals with T2, rat MCH 1 receptor (rMCH1R) (Rattus norvegicus, UniProt P97639).
T2 construct: expressed in transfected cells; host or cells: HEK 293 (membranes)
Kind of experiment: 125I-MCH ligand binding assay, rMCH. The note with it: HEK 293 membranes, 0.2 nM 125I native-MCH, read-out: IC50 in the rMCH binding assay. The gist of the method:
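HEK293 membranes expressing rat or human MCH1R (100 µg tissue) were incubated for 90 min at 30 °C with 0.2 nM 125I-native-MCH and test compound in HEPES/MgCl2/BSA buffer with protease inhibitors, pH 7.4. Non-specific binding used 1 µM cold MCH. Filter-bound radioactivity gave IC50 by nonlinear regression.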

Experiment [2] has as its target T3, human MCH 1 receptor (hMCH1R) (Homo sapiens, UniProt Q99705).
T3 construct: expressed in transfected cells; host or cells: HEK 293 (membranes)
Kind of experiment: 125I-MCH ligand binding assay, hMCH. Particulars: HEK 293 membranes, 0.2 nM 125I native-MCH, read-out: IC50 in the hMCH binding assay. Here is the method:
Human embryonic kidney cells (293 total) expressing either human, rat, or mouse MCH receptor were harvested from 150 mm culture dishes using PBS. Spinning at 1500 rpm for 2 minutes initially pelleted cells. The resulting pellet was then homogenized in 15 mL ice cold sucrose buffer (25 mM HEPES, 0.3 M sucrose, pH 7.4) with a motorized, glass fitted, Teflon® homogenizer. The homogenate was centrifuged at 48,000×g at 4° C. for 10 minutes, resuspended in 15 mL assay buffer (25 mM HEPES, 10 mM mgCl2, 0.2% BSA, 0.1 mg/mL STI, 0.1 mg/mL Pefabloc®, 1 μM Phosphoramidon, pH 7.4) with a Tissue-Tearor® (Biospec Products) and centrifuged again at 48,000×g for 10 minutes. The pellet was homogenized for a third time in 15 mL assay buffer using the Tissue-Tearor® and again centrifuged at 48,000×g for 10 minutes. The resulting pellet was resuspended in assay buffer at a wet weight concentration of 10-20 mg/mL.
Binding assays were determined as described below using mouse, rat or human MCH 1 receptors (mMCH1R, rMCH1R, and hMCH1R, respectively) expressed in HEK 293; IC50 values were calculated.
Binding assays were performed in 96-well U-bottom plates. Membranes (100 μg tissue) were incubated at 30° C. for 90 minutes in assay buffer with various peptides in the presence of 0.2 nM ^125I native-MCH (Perkin-Elmer Life Sciences, Boston, Mass.) in 100 μL total volume. Non-specific binding was assessed in the presence of 1 μM cold native-MCH. The reaction was terminated by rapid filtration through Unfilter-96 GF/C glass fiber filter plates (FilterMate® 196 Harvester, Packard Instrument Co., Meriden, Conn.) pre-soaked in PBS/0.5% BSA, followed by three washes with 300 μL ice-cold water. Bound radioactivity was determined using a TopCount® microplate scintillation and luminescence counter (Packard Instrument Co., Meriden, Conn.). Nonlinear regression analyses of drug concentration curves were performed using GraphPad Prism® (GraphPad Software, Inc., San Diego, Calif.).

For a further experiment, the target named is rat MCH1 receptor (Rattus norvegicus, UniProt P97639). As to the kind of experiment: rMCH FLIPR calcium mobilization assay (CHOK1-Gqi cells). On the set-up: expressed in transfected cells; host or cells: CHOK1-Gqi. Particulars: CHOK1-Gqi cells, rat MCH1 receptor; 100 μM or less list; read-out: Ki in the rMCH FLIPR assay. The format is cell-based. Here is the method:
Pharmacological analyses were conducted using either a HT-PS100 device (Axiom Biotechnologies, San Diego, Calif.), which provides high-resolution dose-response fluorometric measurements of [Ca^++]i mobilization, or using a FLIPR® device (Molecular Devices, Sunnyvale, Calif.).
Materials: Pharmacological analysis was conducted using a FLIPR® device (Molecular Devices, Sunnyvale, Calif.). CHOK1-Gqi cells were stably transfected with the rat MCH1 receptor and maintained under G418 antibiotic pressure. FLIPR® assay buffer consisted of phenol red-free DMEM+2.5 mM probenecid. […]. Test compounds were prepared as 10 mM stocks in 100% DMSO and diluted to a top end working concentration of 10 μM in 96 well black, flat bottom, collagen-I coated plates (Becton Dickinson, Bedford, Mass.).
Methods: CHOK1-Gqi cells stably expressing MCH1R were maintained in Dulbeco's modified Eagle's medium (GIBCO/Life Technologies, Rockville, Md.) supplemented with 2 mM glutamine and 10% dialyzed fetal bovine serum (HyCLone, Logan, Utah) at 37° C., 5% CO2. Cells were harvested by 10′ treatment with Versene (GIBCO/Life Technologies) followed by trituration, washing twice with cold (4° C.) hybridoma medium (Serum/Protein free, with L-glutamine, sodium bicarbonate, MOPS buffer) (Sigma-Aldrich Corp, St. Louis, Mo.) and replated onto 96 well black, flat bottom, collagen-I coated plates to a density of 10,000 cells/well. The cells were then loaded with the fluorescent calcium indicator Fura-2 (Molecular Probes, Eugene, Oreg.) at 1.6 μM for 60′ at room temperature. The loaded cells were then washed twice with 90 μl/well of wash buffer (1×HBSS, 20 mM HEPES, 2.5 mM probenecid).
Receptor-stimulated intracellular calcium responses were detected using FLIPR® by monitoring increases in the Fura-2 fluorescence response.
Test compounds were screened for MCH1R activity in the FLIPR® for both agonist and antagonist action. Agonist mode challenges were conducted at a maximum gradient concentration of 1 μM. Antagonist activity was tested by 10 min pre-incubation of cells at a compound concentration of defined to be 300× the EC50 of MCH (typically 1 μM), with subsequent introduction of MCH at a concentration 5-fold of EC50 as determined in preliminary experiments. […].
Several fixed concentrations of antagonist compounds were prepared in 10-fold increments, and presented to the cells in a gradient of increasing MCH concentration. Values for compound pA2 were calculated by linear regression of MCH EC50s as a function of antagonist concentration.

Where two headings read alike, the source gives them in different places.

T1 sequence (Q99705 whole entry): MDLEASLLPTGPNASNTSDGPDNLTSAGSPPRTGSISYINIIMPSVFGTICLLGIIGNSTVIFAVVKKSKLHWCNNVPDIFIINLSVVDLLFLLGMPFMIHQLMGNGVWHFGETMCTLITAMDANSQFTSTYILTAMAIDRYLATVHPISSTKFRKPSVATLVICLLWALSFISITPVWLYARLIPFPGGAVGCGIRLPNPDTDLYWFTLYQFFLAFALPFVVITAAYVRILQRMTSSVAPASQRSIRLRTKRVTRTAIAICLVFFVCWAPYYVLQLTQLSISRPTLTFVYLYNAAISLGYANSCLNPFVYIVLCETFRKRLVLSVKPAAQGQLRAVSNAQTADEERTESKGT
T3 sequence (Q99705 whole entry): as above
Sequence of rat MCH1 receptor (P97639 whole entry): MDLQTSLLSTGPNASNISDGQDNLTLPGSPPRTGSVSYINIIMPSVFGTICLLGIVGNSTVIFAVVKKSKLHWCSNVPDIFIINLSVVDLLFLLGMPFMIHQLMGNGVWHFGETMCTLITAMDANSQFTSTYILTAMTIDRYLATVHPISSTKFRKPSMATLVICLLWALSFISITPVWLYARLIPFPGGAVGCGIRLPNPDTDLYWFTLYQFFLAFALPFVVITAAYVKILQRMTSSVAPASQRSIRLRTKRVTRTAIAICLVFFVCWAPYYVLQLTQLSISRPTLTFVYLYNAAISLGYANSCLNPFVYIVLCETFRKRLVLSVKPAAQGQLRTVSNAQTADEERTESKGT
T2 sequence (P97639 whole entry): as above

For the molecule `C(=C\c1ccccc1)/CN1CCN([C@@H](c2ccccc2)c2nnnn2-c2ccc3[nH]ccc3c2)CC1` (racemic) [Compound 20], the Ki on human MCH receptor and on rat MCH1 receptor was at most 100 µM throughout. The IC50 was at most 100 µM in experiment [1] (100 μM or less list), at most 0.1 µM in experiment [2] (100 nM or less list) and at most 100 µM in experiment [2] (100 μM or less list).
On to `Cc1cccc(C)c1-n1nnnc1[C@H](c1ccncc1)N1CCN(C/C=C/c2ccccc2)CC1` (racemic) [Compound 86, 1-{[1-(2,6-dimethylphenyl)-1H-tetrazol-5-yl]pyridin-4-ylmethyl}-4-(3-phenylallyl)piperazine], for which the Ki at human MCH receptor and at rat MCH1 receptor was at most 100 µM throughout. Also, in experiment [2] (100 μM or less list), the IC50 was at most 100 µM.
With `Cc1cccc(C)c1-n1nnnc1[C@H](c1cccc(Oc2cc(Cl)cc(Cl)c2)c1)N1CCN(C/C=C/c2ccccc2)CC1` (racemic) [Compound 87, 1-{[3-(3,5-dichloro-phenoxy)-phenyl]-[1-(2,6-dimethylphenyl)-1H-tetrazol-5-yl]methyl}-4-(3-phenylallyl)piperazine], the Ki at human MCH receptor and on rat MCH1 receptor was at most 100 µM in each case. For the same molecule, in experiment [2] (100 μM or less list), the IC50 was at most 100 µM.
As to `Cc1cccc(C)c1-n1nnnc1[C@H](c1cccc(-c2ccccc2)c1)N1CCN(C/C=C/c2ccccc2)CC1` (racemic) [Compound 143, 1-{biphenyl-3-yl-[1-(2,6-dimethylphenyl)-1H-tetrazol-5-yl]methyl}-4-(3-phenylallyl)piperazine], the inhibition constant (Ki) at human MCH receptor and at rat MCH1 receptor was at most 100 µM each time. Further, the IC50 in experiment [1] (100 μM or less list) and in experiment [2] (100 μM or less list) was at most 100 µM each time.
Consider `Cc1cccc(C)c1-n1nnnc1[C@H](c1cccc(C(F)(F)F)c1)N1CCN(CC=C(c2ccccc2)c2ccccc2)CC1` (racemic) [Compound 144, 1-[[1-(2,6-dimethylphenyl)-1H-tetrazol-5-yl]-(3-trifluoromethylphenyl)methyl]-4-(3,3-diphenylallyl)piperazine], for which the Ki on human MCH receptor and on rat MCH1 receptor was at most 100 µM each time. Moreover, the IC50 in experiment [1] (100 nM or less list) was at most 0.1 µM; in experiment [1] (100 μM or less list), at most 100 µM; in experiment [2] (100 nM or less list), at most 0.1 µM; in experiment [2] (100 μM or less list), at most 100 µM.
As for `COc1ccc(/C=C/CN2CCN([C@@H](c3cccc(C(F)(F)F)c3)c3nnnn3-c3c(C)cccc3C)CC2)cc1` (racemic) [Compound 147, 1-[[1-(2,6-dimethylphenyl)-1H-tetrazol-5-yl]-(3-trifluoromethylphenyl)methyl]-4-[3-(4-methoxyphenyl)allyl]piperazine], the inhibitory constant (Ki) on human MCH receptor and on rat MCH1 receptor was at most 100 µM throughout. The IC50 in experiment [1] (100 μM or less list) and in experiment [2] (100 μM or less list) was at most 100 µM in each case.
For `Cc1cccc(C)c1-n1nnnc1[C@H](c1cccc(C(F)(F)F)c1)N1CCN(Cc2cc3ccccc3n2C)CC1` (racemic) [Compound 148, 2-{4-[[1-(2,6-dimethylphenyl)-1H-tetrazol-5-yl]-(3-trifluoromethylphenyl)methyl]piperazin-1-ylmethyl}-1-methyl-1H-indole], the Ki at human MCH receptor and at rat MCH1 receptor was at most 100 µM each time. Besides, the IC50 in experiment [1] (100 μM or less list) and in experiment [2] (100 μM or less list) was at most 100 µM in each case.
In the case of `Cc1cccc(C)c1-n1nnnc1[C@H](c1cccc(C(F)(F)F)c1)N1CCN(Cc2c[nH]c3ccccc23)CC1` (racemic) [Compound 150, 3-{4-[[1-(2,6-dimethylphenyl)-1H-tetrazol-5-yl]-(3-trifluoromethylphenyl)methyl]piperazin-1-ylmethyl}-1H-indole], the Ki on human MCH receptor and at rat MCH1 receptor was at most 100 µM each time. The IC50 in experiment [1] (100 μM or less list) and in experiment [2] (100 μM or less list) was at most 100 µM each time.
For the molecule `Cc1cccc(C)c1-n1nnnc1[C@H](c1cccc(C(F)(F)F)c1)N1CCN(C/C=C/c2ccccc2O)CC1` (racemic) [Compound 151, 2-(3-{4-[[1-(2,6-dimethylphenyl)-1H-tetrazol-5-yl]-(3-trifluoromethylphenyl)methyl]piperazin-1-yl}propenyl)phenol], the Ki at human MCH receptor and on rat MCH1 receptor was at most 100 µM throughout. The IC50 in experiment [1] (100 μM or less list) and in experiment [2] (100 μM or less list) was at most 100 µM each time.
Consider `Cc1cccc(C)c1-n1nnnc1[C@H](c1cccc(C#N)c1)N1CCN(C/C=C/c2ccccc2)CC1` (stereo in doubt) [Compound 133, 3-{[1-(2,6-dimethylphenyl)-1H-tetrazol-5-yl]-[4-(3-phenylallyl)piperazin-1-yl]methyl}benzonitrile], for which the Ki at human MCH receptor and at rat MCH1 receptor was at most 100 µM in each case. The concentration for half-maximal inhibition (IC50) in experiment [1] (100 μM or less list) and in experiment [2] (100 μM or less list) was at most 100 µM each time.
Regarding `Cc1cccc(C)c1-n1nnnc1[C@@H](c1ccc(-n2ccnc2)cc1)N1CCN(C/C=C/c2ccccc2)CC1` (stereo in doubt) [Compound 134, 1-[[1-(2,6-dimethylphenyl)-1H-tetrazol-5-yl]-(4-imidazol-1-ylphenyl)methyl]-4-(3-phenylallyl)piperazine], the inhibition constant (Ki) on human MCH receptor and on rat MCH1 receptor was at most 100 µM each time. Besides, the IC50 in experiment [1] (100 nM or less list) is at most 0.1 µM; in experiment [1] (100 μM or less list), at most 100 µM; in experiment [2] (100 nM or less list), at most 0.1 µM; in experiment [2] (100 μM or less list) it was at most 100 µM.
Consider `Cc1cccc(C)c1-n1nnnc1[C@H](c1ccc(-n2ccnc2)cc1)N1CCN(C/C=C/c2ccccc2)CC1` (stereo in doubt) [Compound 135, 1-[[1-(2,6-dimethylphenyl)-1H-tetrazol-5-yl]-(4-imidazol-1-ylphenyl)methyl]-4-(3-phenylallyl)piperazine], for which the Ki at human MCH receptor and at rat MCH1 receptor was at most 100 µM each time. The IC50 in experiment [1] (100 μM or less list) and in experiment [2] (100 μM or less list) was at most 100 µM throughout.
